Results as given in patent US9023821B2, “Use of MicroRNA for treating diseases associated with a dysfunction of the cilia in multiciliated epithelial cells” (Centre National de la Recherche Scientifique, priority 2009, dated 2015).

How the values were obtained:
[1] = tested on: human airway epithelial cells (HAECs); assay: High-throughput sequencing (HTS) of miRNAs at four stages of differentiation of HAECs; conditions: for Modulation (ratio of the level of intensity of expression in log2 in two stages of differentiation) measured by high-throughput sequencing, D7 − D0 / Modulation (ratio of the level of intensity of expression in log2 in two stages of differentiation) measured by high-throughput sequencing, FC − D7 / Modulation (ratio of the level of intensity of expression in log2 in two stages of differentiation) measured by high-throughput sequencing, WD − D0 / Modulation (ratio of the level of intensity of expression in log2 in two stages of differentiation) measured by high-throughput sequencing, WD − FC / Level of intensity of expression in log2 measured by high-throughput sequencing, D0 / Level of intensity of expression in log2 measured by high-throughput sequencing, D7 / Level of intensity of expression in log2 measured by high-throughput sequencing, FC / Level of intensity of expression in log2 measured by high-throughput sequencing, WD: Table VI; for Level of intensity of expression in log2 At the differentiated stage (WD) measured in HTS: healthy human airway epithelial tissue; for Level of intensity of expression in log2 measured by high-throughput sequencing, D0: stage D0; for Level of intensity of expression in log2 measured by high-throughput sequencing, D7: stage D7; for Level of intensity of expression in log2 measured by high-throughput sequencing, FC: stage FC; for Level of intensity of expression in log2 At the differentiated stage (WD) measured in HTS / Level of intensity of expression in log2 measured by high-throughput sequencing, WD: stage WD
Excerpt: The total RNAs were extracted from HAECs cultivated at the air-liquid interface at four stages of differentiation: ALI-D0 (0 day), ALI-D7 (7 days), ALI-FC (during appearance of the first cilia at about 14 days) and ALI-WD (wholly differentiated at about 21 days). The cells are lysed in reagent with Trizol® (Invitrogen). The total RNAs containing small RNAs and microRNAs are purified on Qiagen RNEasy columns (Qiagen) according to the supplier's instructions.
The total RNAs containing small RNAs and microRNAs are isolated as before. The procedure is based on the Applied Biosystems Ligase-Enhanced Genome Detection technology (LEGenD™); the SOLiD™ Small RNA Expression kit (Applied Biosystems, France) was used. With this method it is possible to convert the small RNAs of a sample into a library of double-stranded DNA; it was developed by Applied Biosystems SOLiD™ System for a new generation of high-throughput sequencing.
The high-throughput sequencing of the microRNAs was carried out according to the supplier's recommendations. Briefly, the total RNAs containing the small RNAs are hybridized (65° C., 10 min, then at 16° C., 5 min) and ligated (16° C., 2-16 h in a thermocycler) with the Adaptor Mix A for producing a matrix for sequencing the 5′ end of the small RNAs, or with the Adaptor Mix B for sequencing the 3′ end. The samples are then reverse-transcribed (42° C., 30 min) to synthesize the complementary DNA (cDNA). The library of small RNAs is amplified by PCR and after migration on polyacrylamide gel the amplified small RNAs are cut out and extracted from the gel according to their size (length of about 105-150 bases, according to the supplier's instructions), eluted and resuspended in nuclease-free water. The concentration of nucleic acids is then measured and normalized before proceeding with preparation of the samples for sequencing.
For each microRNA sequenced, the number of sequences of the 5p strand and of the 3p strand of the microRNA was normalized to 10^6 sequences and converted to percentage abundance of expression for each of the microRNAs. The data were then normalized according to a linear model and an empirical Bayesian method using software R. For subsequent analyses, only the microRNAs were retained for which the percentage expression (or abundance) is greater than 1% of the total of the microRNAs in at least one culture condition, with a |Log2 Ratio| below 0.5 and an adjusted P-value below 0.05.

[2] = tested on: human airway epithelial cells (HAECs); assay: Agilent miRNA chips, miRNA expression at four stages of differentiation of HAECs; conditions: for Modulation (ratio of the level of intensity of expression in log2 in two stages of differentiation) measured with the Agilent chips, D7 − D0 / Modulation (ratio of the level of intensity of expression in log2 in two stages of differentiation) measured with the Agilent chips, FC − D7 / Modulation (ratio of the level of intensity of expression in log2 in two stages of differentiation) measured with the Agilent chips, WD − D0 / Modulation (ratio of the level of intensity of expression in log2 in two stages of differentiation) measured with the Agilent chips, WD − FC / Level of intensity of expression in log2 measured with the Agilent chips, D0 / Level of intensity of expression in log2 measured with the Agilent chips, D7 / Level of intensity of expression in log2 measured with the Agilent chips, FC / Level of intensity of expression in log2 measured with the Agilent chips, WD: Table VI; for Modulation (ratio of the level of intensity of expression in log2 at two stages of differentiation), FC − D7 / Modulation (ratio of the level of intensity of expression in log2 at two stages of differentiation), WD − FC: Agilent miRNA chips, Table V; for Level of intensity of expression in log2 measured with the Agilent chips, D0: stage D0; for Level of intensity of expression in log2 measured with the Agilent chips, D7: stage D7; for Level of intensity of expression in log2 measured with the Agilent chips, FC: stage FC; for Level of intensity of expression in log2 measured with the Agilent chips, WD: stage WD
Excerpt: In parallel with the high-throughput sequencing of the microRNAs, the repertoire of expression of the microRNAs (microRNAome) is investigated using the technology of Agilent® microRNA chips. For this, RNA samples from the same patients as before were used, labeled and hybridized on Agilent® miRNA chips (Human miRNA Microarray v2, containing 866 human miRNAs and 89 human viral miRNAs, i.e. all the human miRNAs contained and referenced in Sanger miRBase v.12.0, Agilent Technologies, France) using the “miRNA labeling and hybridization” kit, following the supplier's instructions (Agilent Technologies).
The inventors then used the Agilent miRNA chips to investigate the repertoire of expression of the miRNAs of the human airway epithelium and compare the results obtained in high-throughput sequencing with those obtained with Agilent® commercial miRNA chips.

[3] = tested on: basal cells and pyramidal cells of the airway epithelium; assay: miRNA expression in sorted basal cells versus pyramidal cells (ciliated + secretory), HTS and Agilent chips; design: species or system human; conditions: for Modulation of expression of the miRNAs in pyramidal cells (323(−)) relative to basal cells 323(+): HTS and Agilent chips; for Intensity of the level of expression in log2 in pyramidal cells (323(−)): pyramidal cells (ciliated + secretory)
Experimental: After dissociation of the stroma of nasal polyps, the epithelial cells (about 20.10^6) are incubated in PBS-BSA-EDTA for 30 min and then incubated with labeled antibody CD151-PE and anti-TF (tissue factor)-FITC for 20 min, 4° C. (see Hajj, R. et al., Stem Cells 25, 139-148 (2007)). After washing twice, the cells are taken up in PBS-EDTA and incubated with DAPI for labeling the cells whose integrity has been altered.
Cell sorting was carried out on the FACSAria sorter (BD Biosciences) equipped with 3 lasers, blue, red and violet. Dead cells, aggregates and double cells were excluded. The doubly positive population of basal cells (CD151+/FT+) and the negative population of cylindrical cells (containing ciliated cells and mucus-secreting cells) (CD151−/FT−) were selected and sorted at a rate of 5000 events/s ([…]). The purity and identity of the sorted cells were then verified by cytometry and immunocytochemistry.
Like the native airway epithelium, the model of differentiation in vitro used in these tests consists of basal cells, ciliated cells and mucus-secreting cells. In order to identify the repertoires of the miRNAs specific to each of the cellular types, the inventors used cell sorting by flow cytometry by means of specific markers (Hajj, R. et al. 2007). Using this technique, adult airway progenitor cells (corresponding a priori to basal cells) were isolated, selected and sorted (such cells appear doubly positive for tetraspanin CD151 and for the tissue factor) from the pyramidal cells (i.e. ciliated cells and mucus-secreting cells) which appear negative for these same markers. These were purified from polyps or from nasal conchae obtained from 3 separate donors.
After extracting the total RNAs, the expression profiles of the miRNAs were established by means of Agilent® commercial chips or by high-throughput sequencing (HTS). […] For the first time, the inventors thus attribute a repertoire of expression of the miRNAs specifically to separate cellular types of the airway epithelium during differentiation.

Row | Substance | Modulation (ratio of the level of intensity of expression in log2 in two stages of differentiation) measured by high-throughput sequencing, D7 − D0 [1] [log2] | Modulation (ratio of the level of intensity of expression in log2 in two stages of differentiation) measured by high-throughput sequencing, FC − D7 [1] [log2] | Modulation (ratio of the level of intensity of expression in log2 in two stages of differentiation) measured by high-throughput sequencing, WD − D0 [1] [log2] | Modulation (ratio of the level of intensity of expression in log2 in two stages of differentiation) measured by high-throughput sequencing, WD − FC [1] [log2] | Level of intensity of expression in log2 At the differentiated stage (WD) measured in HTS [1] [log2] | Level of intensity of expression in log2 measured by high-throughput sequencing, D0 [1] [log2] | Level of intensity of expression in log2 measured by high-throughput sequencing, D7 [1] [log2] | Level of intensity of expression in log2 measured by high-throughput sequencing, FC [1] [log2] | Level of intensity of expression in log2 measured by high-throughput sequencing, WD [1] [log2] | Modulation (ratio of the level of intensity of expression in log2 in two stages of differentiation) measured with the Agilent chips, D7 − D0 [2] [log2] | Modulation (ratio of the level of intensity of expression in log2 in two stages of differentiation) measured with the Agilent chips, FC − D7 [2] [log2] | Modulation (ratio of the level of intensity of expression in log2 in two stages of differentiation) measured with the Agilent chips, WD − D0 [2] [log2] | Modulation (ratio of the level of intensity of expression in log2 in two stages of differentiation) measured with the Agilent chips, WD − FC [2] [log2] | Level of intensity of expression in log2 measured with the Agilent chips, D0 [2] [log2] | Level of intensity of expression in log2 measured with the Agilent chips, D7 [2] [log2] | Level of intensity of expression in log2 measured with the Agilent chips, FC [2] [log2] | Level of intensity of expression in log2 measured with the Agilent chips, WD [2] [log2] | Modulation of expression of the miRNAs in pyramidal cells (323(−)) relative to basal cells 323(+) [3] | Intensity of the level of expression in log2 in basal cells (323(+)) [3] [log2] | Intensity of the level of expression in log2 in pyramidal cells (323(−)) [3] [log2] | also measured
1 | hsa-miR-16: human miRNA, SEQ ID No. 10 (UAGCAGCACGUAAAUAUUGGCG; expressed or natural sequence; listed as Homo sapiens) | 2.01 | −1.17 | 2.22 | 1.38 | 5.35 | 3.13 | 5.14 | 3.97 | 5.35 | 2.07 | −0.36 | 1.59 | −0.11 | 9.47 | 11.54 | 11.18 | 11.06 | −0.48 | 9.10 | 8.62 | Modulation (ratio of the level of intensity of expression in log2 at two stages of differentiation), FC − D7 [2]: −0.36 log2; Modulation (ratio of the level of intensity of expression in log2 at two stages of differentiation), WD − FC [2]: −0.11 log2
2 | hsa-miR-17: human miRNA, SEQ ID No. 11 (CAAAGUGCUUACAGUGCAGGUAG; expressed or natural sequence; listed as Homo sapiens) | −0.17 | −0.87 | −1.24 | −0.20 | 11.61 | 12.85 | 12.68 | 11.81 | 11.61 | 0.31 | −1.14 | −1.22 | −0.39 | 9.03 | 9.34 | 8.19 | 7.81 | −2.60 | 6.64 | 4.04 | Modulation (ratio of the level of intensity of expression in log2 in two stages of differentiation), D7 − D0 ([1]; HTS): −0.17 log2; Modulation (ratio of the level of intensity of expression in log2 in two stages of differentiation), FC − D7 ([1]; HTS): −0.87 log2; Modulation (ratio of the level of intensity of expression in log2 in two stages of differentiation), WD − FC ([1]; HTS): −0.20 log2; Abundance (%), D0 ([1]; HTS, ALI-D0): 1.61%; Abundance (%), D7 ([1]; HTS, ALI-D7): 1.44%; Abundance (%), FC ([1]; HTS, ALI-FC): 0.76%; Abundance (%), WD ([1]; HTS, ALI-WD): 0.50%
3 | hsa-miR-22: human miRNA, SEQ ID No. 23 (AAGCUGCCAGUUGAAGAACUGU; expressed or natural sequence; listed as Homo sapiens) | 0.80 | −1.14 | 0.40 | 0.73 | 11.22 | 8.89 | 9.69 | 8.55 | 9.29 | 1.09 | −0.66 | 0.48 | 0.05 | 10.67 | 11.75 | 11.10 | 11.15 | −1.73 | 8.81 | 7.07 | Modulation (ratio of the level of intensity of expression in log2 at two stages of differentiation), FC − D7 [2]: −0.66 log2; Modulation (ratio of the level of intensity of expression in log2 at two stages of differentiation), WD − FC [2]: 0.05 log2
